Experimental data taken from US8501725B2, “Synergistic combination of flumetsulam or diclosulam with zinc pyrithione” (Dow Global Technologies LLC, priority 2010, dated 2013).
Read-outs that look alike come from different tables or passages of the source.

Experiments:
Format in all cases: cell-based
[1] = tested on: Gloeocapsa sp. and Oscillatoria sp. (Gs + Os); experiment: Algal efficacy testing, modified ASTM 5589, paint film (both studies); conditions: four weeks; for MIC: 672 h, read-out: Total conc (minimum inhibitory concentration chosen for SI); for MIC / Total conc (minimum inhibitory concentration chosen for SI): in acrylic latex paint, dry film; for % inhibition: at the Total conc given
Protocol: (§1) Sample preparation: A single or blend of biocides was post added into white acrylic latex paint free of biocides to give a maximum total active ingredient/s concentration tested. This paint was then diluted with a biocide free acrylic latex paint to give targeted concentrations for the testing. Depending on the type of biocide blends tested, the total biocides concentrations varies from 200 to 5000 ppm. After biocides addition or dilution, each sample was hand mixed for at least a minute until uniformity is achieved. Each of the paint samples as well as a control sample (containing no biocide) were used to prepare films on black plastic-vinyl chloride/acetate copolymer panels (LENETA, Mahwah, N.J.) using a 3 mil (0.0762 mm) bird bar applicator. The panels were thoroughly dried for at least 2 days avoiding direct exposure to sunlight. Square discs ([…]) were cut out from each panel and were used as the substrate for fungal and algal efficacy tests. This sample size allowed for an agar border when the sample disc was placed into the well of the test plate. Each sample was tested in duplicate
(§2) Test conditions: The appropriate media (BOLD'S 3N for Chlorophytes, BG-11 for Cyanobacteria, and PDA for fungi) were used to support microbial growth. The test plates were maintained at room temp (25° C.-26° C.), in a cycled light-dark environment, for four weeks for algae. Plates for fungal challenge tests were maintained at 30 C for four weeks. At the end of the incubation period the samples were scored for percent area covered by visible microbial growth.
(§3) ASTM 5589 is a standard accelerated test method for determining resistance of various coatings (including paints) to algal defacement. To accommodate for high-throughput screening, this method was scaled down from petri plates to 6-well plates. A single coupon was placed with a pair of sterile forceps at the center of the agar plug (on top) with the painted surface facing upwards. Algal inoculums were prepared by mixing equal concentrations (1×10^6 cfu/ml) and equal volumes (depending on number of samples to be inoculated) of like growing organisms.
(§4) In Flumetsulam+various IT synergy study, three pool of mixed algae were prepared as the test inoculum, Gloeocapsa sp. and Oscillatoria sp. a mix of cyanobacteria grown on BG-11 media; Chlorella sp., Chlorella kessleri, and Nostoc commune are unicellular chlorphytes that were mixed and grown on Bold media; Trentepohlia aurea, Tretepohlia odorata, and Calotrix parientina are filamentous algae that were mixed and grown on Bold media.
(§5) In Diclosulam+various IT synergy study, only two pools of mixed algae were prepared; Gloeocapsa sp. and Oscillatoria sp. grown on BG-11 media and Chlorella sp., Chlorella kessleri, Nostoc commune, Trentepohlia aurea, Tretepohlia odorata, and Calotrix parientina grown on Bold media
(§6) Each well that contains a tested coupon was inoculated with 400 μl of organism mixture (1×10^6 cfu/ml) making sure that the whole surface (paint film as well as the agar surrounding it) was evenly covered. The plates were incubated at room temp (25° C.-26° C.) with cyclic exposure to light (OTT-Lite model # OTL4012P, 40 Watt, 26KLumen) and dark phases, for a period of four weeks. The total area covered was evaluated at the end of each week according to percent area covered in 5% increments.
(§7) The SI is calculated based on F. C.
(§8) NE=no end point at the concentration tested that will meet the percent inhibition criteria set in each SI calculation

[2] = tested on: Aa + Tv + An + Pf + Ap + Ch; experiment: Fungal efficacy testing, modified ASTM 5590, paint film (Diclosulam + ZPT study, single pool of all fungi); conditions: four weeks; for % inhibition: at the Total conc given; for Total conc: in acrylic latex paint, dry film, 30 C
Protocol: as §1, §2
ASTM 5590 is a standard accelerated test method for determining resistance of various coatings (including paints) to fungal defacement. To accommodate for high-throughput screening, this method was scaled down from petri plates to 6-well plates. To set up the test, an agar plug was placed at the bottom of each well of the sterile 6-well plate. A single coupon was placed with a pair of sterile forceps at the center of the agar plug (on top) with the painted surface facing upwards. Fungal inoculums were prepared by mixing equal concentrations (1×10^6 cfu/ml) and equal volumes (depending on number of samples to be tested) of like growing organisms. For Flumetsulam+various IT synergy study, three pools of mixed fungi were prepared as the test inoculum. Cladosporium herbarum was mixed with Aureobasidium pullulans; Aspergillus niger was mixed with Penicillium funiculosum and Alternaria alternata was mixed with Trichoderma viride. For Diclosulam+various IT synergy study, all above fungi were mixed as a single pool. […] The total percent area covered was evaluated and recorded at the end of each week after the 2nd week and recorded in increments of 5%.
(§9) The SI is calculated based on F. C. […]

[3] = tested on: Chlorella sp., Chlorella kessleri, Nostoc commune, Trentepohlia aurea, Tretepohlia odorata, and Calotrix parientina (Cp + To + Ta + Cs + Ck + Nc); experiment: Algal efficacy testing, modified ASTM 5589, paint film (Diclosulam + ZPT study); conditions: four weeks; for % inhibition: at the Total conc given
Protocol: as §1, §2, §3, §5
(§10) Each well that contains a tested coupon was inoculated with 400 μl of organism mixture (1×10^6 cfu/ml) making sure that the whole surface (paint film as well as the agar surrounding it) was evenly covered. […] The total area covered was evaluated at the end of each week according to percent area covered in 5% increments.
as §9

[4] = as above; conditions: Nostoc commune, 672 h; Cp + To + Ta + Cs + Ck + Nc; in acrylic latex paint, dry film; four weeks; read-out: Total conc (minimum inhibitory concentration chosen for SI)
Protocol: as §1, §2, §3, §5, §10, §9

[5] = tested on: Trentepohlia aurea, Tretepohlia odorata, and Calotrix parientina (Cp + To + Ta); experiment: Algal efficacy testing, modified ASTM 5589, paint film (Flumetsulam + ZPT study); conditions: four weeks; for % inhibition: at the Total conc given; for Total conc (minimum inhibitory concentration chosen for SI): in acrylic latex paint, dry film, 25-26 C, light-dark
Protocol: as §1, §2, §3, §4, §6, §7, §8

[6] = tested on: Chlorella sp., Chlorella kessleri, and Nostoc commune (Cs + Ck + Nc); experiment: as above; conditions: four weeks; for % inhibition: at the Total conc given
Protocol: as §1, §2, §3, §4, §6, §7, §8

[7] = tested on: Alternaria alternata mixed with Trichoderma viride (AaTv); experiment: Fungal efficacy testing, modified ASTM 5590, paint film (Flumetsulam + ZPT study); conditions: four weeks; for % inhibition: at the Total conc given
Protocol: as §1, §2
(§11) ASTM 5590 is a standard accelerated test method for determining resistance of various coatings (including paints) to fungal defacement. To accommodate for high-throughput screening, this method was scaled down from petri plates to 6-well plates. To set up the test, an agar plug was placed at the bottom of each well of the sterile 6-well plate. A single coupon was placed with a pair of sterile forceps at the center of the agar plug (on top) with the painted surface facing upwards. Fungal inoculums were prepared by mixing equal concentrations (1×10^6 cfu/ml) and equal volumes (depending on number of samples to be tested) of like growing organisms. For Flumetsulam+various IT synergy study, three pools of mixed fungi were prepared as the test inoculum. Cladosporium herbarum was mixed with Aureobasidium pullulans; Aspergillus niger was mixed with Penicillium funiculosum and Alternaria alternata was mixed with Trichoderma viride. For Diclosulam+various IT synergy study, all above fungi were mixed as a single pool. Each well was inoculated with 400 μl of organism mixture (1×10^6 cfu/ml) making sure that the whole surface (paint film as well as the agar surrounding it) was evenly covered. The plates were incubated at 30° C. in presence of moisture, for a period of four weeks. The total percent area covered was evaluated and recorded at the end of each week after the 2nd week and recorded in increments of 5%.
as §7, §8

[8] = tested on: Cladosporium herbarum mixed with Aureobasidium pullulans (ApCh); experiment: as above; conditions: four weeks; for % inhibition: at the Total conc given
Protocol: as §1, §2, §11, §7, §8

[9] = tested on: Aspergillus niger mixed with Penicillium funiculosum (AnPf); experiment: as above; conditions: four weeks; for % inhibition: at the Total conc given
Protocol: as §1, §2, §11, §7, §8

[10] = in acrylic latex paint, dry film, 30 C

Compound | % inhibition ([1]; Diclosulam and ZPT study) [%] | % inhibition [2] [%] | Total conc [2] [ppm] | % inhibition [3] [%] | % inhibition ([1]; Flumetsulam and ZPT study) [%] | % inhibition [5] [%] | Total conc (minimum inhibitory concentration chosen for SI) [5] [ppm] | % inhibition [6] [%] | % inhibition [7] [%] | % inhibition [8] [%] | % inhibition [9] [%] | further results
CCOc1nc(F)cc2nc(S(=O)(=O)Nc3c(Cl)cccc3Cl)nn12 [Diclosulam, N-(2,6-dichlorophenyl)-5-ethoxy-7-fluoro[1,2,4]triazolo[1,5-c]pyrimidine-2-sulfonamide] | 100 | 0 | 3500 | 80 | – | – | – | – | – | – | – | MIC ([1]; Diclosulam and ZPT study): 438 µg/mL; MIC [4]: 3500 µg/mL
Cc1ccn2nc(S(=O)(=O)Nc3c(F)cccc3F)nc2n1 [Flumetsulam, N-(2,6-difluorophenyl)-5-methyl[1,2,4]triazolo[1,5-a]pyrimidine-2-sulfonamide] | – | – | – | – | 0 | 100 | 2625 | 90 | 0 | 25 | 0 | MIC ([1]; Flumetsulam and ZPT study): 2620 µg/mL; MIC ([6]; Nostoc commune, 672 h, in acrylic latex paint, dry film, 25-26 C, light-dark, read-out: Total conc (minimum inhibitory concentration chosen for SI)): 3500 µg/mL; MIC ([7]; Alternaria alternata, 672 h, in acrylic latex paint, dry film, 30 C, NE = no end point at the concentration tested, read-out: Total conc (minimum inhibitory concentration chosen for SI)): 3500 µg/mL; MIC ([8]; Cladosporium herbarum, 672 h, in acrylic latex paint, dry film, 30 C, read-out: Total conc (minimum inhibitory concentration chosen for SI)): 3500 µg/mL; MIC ([9]; Aspergillus niger, 672 h, in acrylic latex paint, dry film, 30 C, read-out: Total conc (minimum inhibitory concentration chosen for SI)): 3500 µg/mL
zinc pyrithione [ZPT] | 100 | 0 | 5000 | 100 | 100 | 100 | 625 | 100 | 50 | 100 | 100 | Total conc (minimum inhibitory concentration chosen for SI) ([1]; Diclosulam and ZPT study): 625 ppm; Total conc (minimum inhibitory concentration chosen for SI) ([1]; Flumetsulam and ZPT study): 625 ppm; Total conc (minimum inhibitory concentration chosen for SI) ([6]; in acrylic latex paint, dry film, 25-26 C, light-dark): 625 ppm; Total conc (minimum inhibitory concentration chosen for SI) ([3]; in acrylic latex paint, dry film): 625 ppm; Total conc (minimum inhibitory concentration chosen for SI) ([7]; in acrylic latex paint, dry film, 30 C, NE = no end point at the concentration tested): 5000 ppm; Total conc (minimum inhibitory concentration chosen for SI) [8, 10]: 625 ppm; Total conc (minimum inhibitory concentration chosen for SI) [9, 10]: 625 ppm
